{"source": "patent US20240409510A1", "about": "(priority 2022, published 2024)"}
{"molecular_target": "SARS-CoV-2 3CLpro (Severe acute respiratory syndrome coronavirus 2, UniProt P0DTD1)", "type": "biochemical", "settings": "pH 7.5"}
{"compound": "COc1ccccc1C(=O)C(=O)[C@H](C[C@@H]1CCNC1=O)NC(=O)C1[C@@H]2[C@H](CN1C(=O)C(NC(=O)C(F)(F)F)C(C)(C)C)C2(C)C", "note": "(stereo partly shown) [Compound 15]", "Activity of SARS-CoV-2 MPro inhibitors": "A+++ (key: A >100 μM; A+ <50 μM; A++ <10 μM; A+++ <1 μM)"}
{"compound": "Cc1cc(C)cc(C(=O)C(=O)[C@H](C[C@@H]2CCNC2=O)NC(=O)C2[C@@H]3[C@H](CN2C(=O)C(NC(=O)C(F)(F)F)C(C)(C)C)C3(C)C)c1", "note": "(stereo partly shown) [Compound 10]", "Activity of SARS-CoV-2 MPro inhibitors": "A+++ (key: A >100 μM; A+ <50 μM; A++ <10 μM; A+++ <1 μM)"}
{"compound": "CC(C)(C)C(NC(=O)C(Cl)(Cl)Cl)C(=O)N1C[C@H]2[C@@H](C1C(=O)N[C@@H](C[C@@H]1CCNC1=O)C(=O)C(=O)c1ccccc1)C2(C)C", "note": "(stereo partly shown) [Compound 9]", "Activity of SARS-CoV-2 MPro inhibitors": "A (key: A >100 μM; A+ <50 μM; A++ <10 μM; A+++ <1 μM)"}
{"compound": "Cc1ccc(C(=O)C(=O)[C@H](C[C@@H]2CCNC2=O)NC(=O)C2[C@@H]3[C@H](CN2C(=O)C(NC(=O)C(F)(F)F)C(C)(C)C)C3(C)C)cc1", "note": "(stereo partly shown) [Compound 5]", "Activity of SARS-CoV-2 MPro inhibitors": "A+++ (key: A >100 μM; A+ <50 μM; A++ <10 μM; A+++ <1 μM)"}
{"compound": "CCCN(CCC)[C@@H]1C[C@@H](C(=O)NC(C[C@@H]2CCNC2=O)C(=O)C(=O)c2ccccc2)N(C(=O)[C@@H](NC(=O)C(F)(F)F)C(C)(C)C)C1", "note": "(stereo partly shown) [Compound 1]", "Activity of SARS-CoV-2 MPro inhibitors": "A+++ (key: A >100 μM; A+ <50 μM; A++ <10 μM; A+++ <1 μM)"}
{"compound": "CCCC(=O)C(=O)[C@H](C[C@@H]1CCNC1=O)NC(=O)[C@@H]1Cc2ccccc2CN1C(=O)[C@@H](NC(=O)C(F)(F)F)C(C)(C)C", "note": "[Compound 14]", "Activity of SARS-CoV-2 MPro inhibitors": "A++ (key: A >100 μM; A+ <50 μM; A++ <10 μM; A+++ <1 μM)"}
{"compound": "CCCC(=O)C(=O)[C@H](C[C@@H]1CCNC1=O)NC(=O)[C@@H]1Cc2ccccc2CN1C(=O)[C@@H](NC(=O)OCc1ccncc1)C(C)(C)C", "note": "[Compound 16]", "Activity of SARS-CoV-2 MPro inhibitors": "A+++ (key: A >100 μM; A+ <50 μM; A++ <10 μM; A+++ <1 μM)"}
{"compound": "CC(C)O[C@@H]1C[C@@H](C(=O)NC(C[C@@H]2CCNC2=O)C(=O)C(=O)c2ccccc2)N(C(=O)[C@@H](NC(=O)C(F)(F)F)C(C)(C)C)C1", "note": "(stereo partly shown) [Compound 2]", "Activity of SARS-CoV-2 MPro inhibitors": "A+++ (key: A >100 μM; A+ <50 μM; A++ <10 μM; A+++ <1 μM)"}
{"compound": "CC(C)(C)OC(=O)NC(C(=O)N1C[C@H]2[C@@H](C1C(=O)N[C@@H](C[C@@H]1CCNC1=O)C(=O)C(=O)c1ccc(F)cc1)C2(C)C)C(C)(C)C", "note": "(stereo partly shown) [Compound 6]", "Activity of SARS-CoV-2 MPro inhibitors": "A+++ (key: A >100 μM; A+ <50 μM; A++ <10 μM; A+++ <1 μM)"}
{"compound": "CC(C)(C)[C@H](NC(=O)CCc1ccccc1)C(=O)N1Cc2ccccc2C[C@H]1C(=O)N[C@@H](C[C@@H]1CCNC1=O)C(=O)C(=O)c1ccccc1", "note": "[Compound 17]", "Activity of SARS-CoV-2 MPro inhibitors": "A+++ (key: A >100 μM; A+ <50 μM; A++ <10 μM; A+++ <1 μM)"}
{"compound": "CCCC(=O)C(=O)[C@H](C[C@@H]1CCNC1=O)NC(=O)C1[C@@H]2[C@H](CN1C(=O)C(NC(=O)C(F)(F)F)C(C)(C)C)C2(C)C", "note": "(stereo partly shown) [Compound 11]", "Activity of SARS-CoV-2 MPro inhibitors": "A+++ (key: A >100 μM; A+ <50 μM; A++ <10 μM; A+++ <1 μM)"}
{"compound": "CC(C)(C)C(NC(=O)C(F)(F)F)C(=O)N1C[C@H]2[C@@H](C1C(=O)N[C@@H](C[C@@H]1CCNC1=O)C(=O)C(=O)c1ccc(F)cc1)C2(C)C", "note": "(stereo partly shown) [Compound 7]", "Activity of SARS-CoV-2 MPro inhibitors": "A+++ (key: A >100 μM; A+ <50 μM; A++ <10 μM; A+++ <1 μM)"}
{"compound": "CC(C)(C)[C@H](NC(=O)/C=C/c1ccccc1)C(=O)N1Cc2ccccc2C[C@H]1C(=O)N[C@@H](C[C@@H]1CCNC1=O)C(=O)C(=O)c1ccccc1", "note": "[Compound 18]", "Activity of SARS-CoV-2 MPro inhibitors": "A+++ (key: A >100 μM; A+ <50 μM; A++ <10 μM; A+++ <1 μM)"}
{"compound": "CC(C)(C)[C@H](NC(=O)C(F)(F)F)C(=O)N1Cc2ccccc2C[C@H]1C(=O)NC(CC1CCCNC1=O)C(=O)C(=O)c1ccccc1", "note": "(stereo partly shown) [Compound 13]", "Activity of SARS-CoV-2 MPro inhibitors": "A+ (key: A >100 μM; A+ <50 μM; A++ <10 μM; A+++ <1 μM)"}
{"compound": "CC(C)(C)C(NC(=O)C(F)(F)F)C(=O)N1C[C@H]2[C@@H](C1C(=O)N[C@@H](C[C@@H]1CCNC1=O)C(=O)C(=O)c1ccncc1)C2(C)C", "note": "(stereo partly shown) [Compound 20]", "Activity of SARS-CoV-2 MPro inhibitors": "A++ (key: A >100 μM; A+ <50 μM; A++ <10 μM; A+++ <1 μM)"}
{"compound": "CC(C)(C)[C@H](NC(=O)C(F)(F)F)C(=O)N1Cc2ccccc2C[C@H]1C(=O)N[C@@H](C[C@@H]1CCNC1=O)C(=O)C(=O)c1ccccc1", "note": "[Compound 12]", "Activity of SARS-CoV-2 MPro inhibitors": "A+++ (key: A >100 μM; A+ <50 μM; A++ <10 μM; A+++ <1 μM)"}
{"compound": "CC(C)(C)[C@H](NC(=O)C(Cl)(Cl)Cl)C(=O)N1C[C@H]2[C@@H]([C@H]1C(=O)NC(C[C@@H]1CCNC1=O)C(=O)C(=O)c1ccccc1)C2(C)C", "note": "(stereo partly shown) [Compound 4]", "Activity of SARS-CoV-2 MPro inhibitors": "A++ (key: A >100 μM; A+ <50 μM; A++ <10 μM; A+++ <1 μM)"}
{"compound": "COc1ccc(C(=O)C(=O)[C@H](C[C@@H]2CCNC2=O)NC(=O)C2[C@@H]3[C@H](CN2C(=O)C(NC(=O)C(F)(F)F)C(C)(C)C)C3(C)C)cc1", "note": "(stereo partly shown) [Compound 8]", "Activity of SARS-CoV-2 MPro inhibitors": "A+++ (key: A >100 μM; A+ <50 μM; A++ <10 μM; A+++ <1 μM)"}
{"compound": "CC(C)(C)C(NC(=O)C(F)(F)F)C(=O)N1C[C@H]2[C@@H](C1C(=O)N[C@@H](C[C@@H]1CCNC1=O)C(=O)C(=O)c1ccccc1)C2(C)C", "note": "(stereo partly shown) [Compound 3]", "Activity of SARS-CoV-2 MPro inhibitors": "A+++ (key: A >100 μM; A+ <50 μM; A++ <10 μM; A+++ <1 μM)"}
